PubChem BioAssay (NCI)
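Following 48 hours of exposure in 96-well plates, responses at five concentrations were used to interpolate endpoints linearly. Here, GI50 denotes the concentration required for 50% inhibition of growth. The concentration for full growth arrest is given as TGI.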

Columns and labels:
Experiment in all cases: NCI-60 cell line screen, 48 h
[1] = tested on: 786-0 renal
[2] = tested on: CCRF-CEM leukemia
[3] = tested on: NCI-H460 lung
[4] = tested on: OVCAR-3 ovarian
[5] = tested on: SNB-19 CNS
[6] = tested on: SW-620 colon
[7] = tested on: UACC-257 melanoma
[8] = tested on: DU-145 prostate
[9] = tested on: NCI-H226 lung
[10] = tested on: NCI/ADR-RES ovarian

Structure (SMILES) | TGI [1] [µM] | TGI [2] [µM] | TGI [3] [µM] | TGI [4] [µM] | TGI [5] [µM] | TGI [6] [µM] | TGI [7] [µM] | GI50 [1] [µM] | GI50 [2] [µM] | GI50 [8] [µM] | TGI [8] [µM] | GI50 [9] [µM] | TGI [9] [µM] | GI50 [10] [µM] | TGI [10] [µM] | GI50 [5] [µM] | GI50 [6] [µM] | GI50 [7] [µM] | GI50 [3] [µM] | GI50 [4] [µM]
CSc1n[n+]2c(s1)SCCC2 | > 100 | > 100 | > 100 | > 100 | > 100 | > 100 | > 100 |  |  |  |  |  |  |  |  |  |  |  |  | 
COc1ccc(/C=N\Nc2ccc([N+](=O)[O-])cn2)cc1OC | > 100 | > 100 |  |  | > 100 | > 100 | > 100 | 3.46 | > 100 | > 100 | > 100 | 8.39 | > 100 | > 100 | > 100 | 27 | > 100 | > 100 |  | 
CC(=O)On1c(-c2ccccc2-c2nc3ccccc3n2OC(C)=O)nc2ccccc21 | > 100 | > 100 |  | > 100 | > 100 | > 100 | > 100 |  |  |  | > 100 |  | > 100 |  | > 100 |  |  |  |  | 
N#C/C(=C1\SC(N=Nc2ccccc2)C(=O)N1c1ccccc1)c1nc2ccccc2[nH]1 (stereo not given) | > 100 | > 100 | > 100 | > 100 | > 100 | > 100 | > 100 |  |  |  |  |  | > 100 |  |  |  |  |  |  | 
CC(=O)[CH-]C(=O)c1ccccc1.CC(=O)[CH-]C(=O)c1ccccc1.CCOCC[O-].CCOCC[O-].[Ti+4] | 74.2 |  | 43.4 | > 100 | 38.6 | > 100 | > 100 | 21.2 |  |  |  | 5.55 | 22.6 |  |  | 18.1 | 28.3 | 33.8 | 18.8 | 21.6
O=C(Nc1cccc(O)c1)C(=O)C(C(=O)c1ccc(Cl)c(Cl)c1)C1OC(=O)c2ccccc21 (stereo not given) | 26.4 | 55.5 | 27.5 |  | 37.8 | 29 | 55.6 |  |  |  |  |  | 21.9 |  |  |  |  |  |  | 
O=C1OC(O)C(Oc2c(Cl)cccc2Cl)=C1Cl (stereo not given) | 32.2 | 53 | 29.2 | 31 | 78.1 | 28.3 | 42.1 |  |  |  |  |  | 42.6 |  |  |  |  |  |  | 
CCOC(=O)C(C)(C)Oc1ccc(/C=C/C(=O)c2ccc(Cl)cc2)cc1 | 30.9 | 61.9 | > 100 | 30.4 | 37.7 | 28 | 41.4 |  |  |  |  |  | 70.5 |  |  |  |  |  |  | 
CC/C(CC(=O)CCC(=O)Nc1ccccc1[N+](=O)[O-])=N/NC(=O)C[n+]1ccccc1 | > 100 | > 100 | > 100 | > 100 | > 100 | > 100 | > 100 |  |  |  |  |  | > 100 |  |  |  |  |  |  | 
FC(F)(F)C1(Br)C(c2ccccc2)=C1c1ccccc1 | 31 | 30.2 | 80.1 | 29.6 | 59.2 | 33.5 | 43 |  |  |  |  |  | 46.3 |  |  |  |  |  |  | 
C=C[C@@]1(O)CCCC2=C(C(=O)OCC)CC[C@]21C | > 100 | > 100 | > 100 | > 100 | > 100 | > 100 | > 100 |  |  |  |  |  | > 100 |  |  |  |  |  |  | 
O=Cc1cccc2c1Oc1c(cccc1C(=O)O)S2 | > 100 |  | > 100 | > 100 | > 100 | > 100 | > 100 |  |  |  | > 100 |  | > 100 |  | > 100 |  |  |  |  | 
O=C1C(Cl)C(c2ccccc2O)N1n1cnc2ccccc2c1=O (stereo not given) | > 100 | > 100 | > 100 | > 100 | > 100 | > 100 | > 100 |  |  |  |  |  | > 100 |  |  |  |  |  |  | 
CC1=NN(C(=O)c2ccc([N+](=O)[O-])cc2)C(=O)C1N=Nc1ccccc1C(=O)O (stereo not given) | > 100 | > 100 | > 100 | > 100 | > 100 | > 100 | > 100 |  |  |  |  |  | > 100 |  |  |  |  |  |  | 
O=[N+]([O-])C1Cc2ccccc2OC1c1ccccc1 (stereo not given) | > 100 | > 100 |  | > 100 | > 100 | > 100 | > 100 |  |  |  |  |  | > 100 |  |  |  |  |  |  | 
CN1C(=O)C(=O)c2cc3c(c4c2c1cc1ccccc14)OCO3 | > 100 | > 100 | > 100 | > 100 | > 100 | > 100 | > 100 |  |  |  |  |  | 73.3 |  |  |  |  |  |  | 
O=S1Nc2c(Cl)cc(Cl)c3c(Cl)cc(Cl)c(c23)N1 | 41.9 | > 100 |  | 96.2 | > 100 | > 100 | > 100 |  |  |  |  |  | 69.5 |  |  |  |  |  |  | 
CN(C)c1nc(=Nc2cccc(Cl)c2)ss1 | 25.6 | 22.1 | 46.3 |  | > 100 | 18.8 | 36 |  |  |  |  |  | > 100 |  |  |  |  |  |  | 
CCOC(=N)/C(=C1\OC(N)=C(c2ccc(Cl)cc2)C1=O)c1ccc(Cl)cc1 | 32.7 | 65.6 | 46 | 32.8 | 49.9 | 32.1 | 35.1 |  |  |  |  |  | 49.9 |  |  |  |  |  |  | 
CCOc1cccc2ccc[n+](CC)c12 | > 100 | > 100 | > 100 | > 100 | > 100 | > 100 | > 100 |  |  |  |  |  | > 100 |  |  |  |  |  |  | 
COc1cccc(/C=C/C(=O)c2ccc(Cl)cc2Cl)c1 | 40.7 |  | 40.2 | 25.2 | 16.8 | 7.62 | 17.4 | 12.8 |  | 9.42 | 17.3 | 9.79 | 25.7 | 11.6 | 33.1 | 8.07 | 1.82 | 9.33 | 11.9 | 10.9
O=c1[nH]c2cc(Cl)ccc2nc1/C(=N\O)C(O)c1ccc([N+](=O)[O-])cc1 (stereo not given) | > 100 | > 100 | > 100 |  | > 100 | > 100 | > 100 |  |  |  |  |  |  |  |  |  |  |  |  | 
